# Assay results: US20250074908A1, “SALT OF ROCK INHIBITOR, CRYSTAL FORM OF SALT, COMPOSITION, AND PHARMACEUTICAL USE” (WUHAN CREATERNA SCIENCE AND TECHNOLOGY CO., LTD., priority 2022, published 2025)
# Tests used:
# [1] = Pharmacokinetic study in rats; assay type: in vivo, SD rats
# Procedure: Compound I, 2-hydroxyethanesulfonate of compound I, ethanesulfonate (crystal form I) of compound I, tartrate of compound I, and sulfate of compound I were each accurately weighed, and the required volume of vehicle was added. The mixture was stirred for 5 min, then sonicated below 25° C. until no large particles were visible to the naked eye, and further stirred for 30 min until a homogeneous suspension was obtained. The suspension was then used for administration.
# Male SPF-grade SD rats (Beijing Vital River Laboratory Animal Technology Co., Ltd.) were given compound I, the 2-hydroxyethanesulfonate of compound I, the ethanesulfonate of compound I (crystal form I), the tartrate of compound I, and the sulfate of compound I by single intragastric administration after an acclimation period (with free access to water and food). Blood was collected from the orbital venous plexus of the rats at 0.167 h, 0.5 h, 1 h, 2 h, 3 h, 4 h, 6 h, 9 h, 12 h, and 24 h after administration. Each blood sample was centrifuged at 3500×g for 10 min at 4° C. The supernatant was then collected, and the concentration of compound I in the plasma was measured by LC-MS/MS (AB Sciex TRIPLE QUAD 3500). The data were analyzed using a non-compartmental model in WinNonlin (version 5.2.1 Pharsight, Mountain View, CA) to obtain PK parameters.
# [2] = Hygroscopicity test (dynamic vapor sorption, DVS); assay type: physicochemical; details: for weight gain (DVS): 25° C.; for hygroscopicity: DVS
# Procedure: The instrument used for dynamic vapor sorption analysis was Vsorp (ProUmid GmbH & Co. KG, Germany). Each sample was subjected to vapor sorption/desorption tests using the Vsorp vapor sorption analyzer (ProUmid GmbH & Co. KG, Germany). The sample was placed in a tared sample tray, and the change in the sample mass with humidity (0-90% RH) at 25° C. was recorded.
# [3] = Solid-state stability test (HPLC purity and XRPD), Table 13-3; assay type: physicochemical
# Procedure: B) The HPLC method used for the stability test was as follows:
# The samples after being placed for 0 days, 1 week, 2 weeks and 30 days were taken and each dissolved in a diluent to prepare a solution at about 1.0 mg/mL, which was then tested for chemical stability by HPLC analysis using Agilent HPLC 1260 series. The solid samples after being placed for 2 weeks and 30 days were tested for physical stability by XRPD analysis.
# [4] = Chemical stability on storage up to 3 months (HPLC purity), Table 13-4; assay type: physicochemical; details: for stability in chemical properties: 40° C./75% humidity (sealed and protected from light); for Purity (%), 230 nm, Day 13: 40° C./75% humidity, sealed and protected from light
# Procedure: B) The HPLC method used for the stability study was as follows:
# The vials were sealed with tin foil and then separately placed under the conditions of 40° C. temperature/75% humidity or 25° C. temperature/60% humidity for about 3 months. The samples after being placed for 0 months, 2 weeks, 1 month and 3 months were taken and each dissolved in a diluent to prepare a solution at about 1.0 mg/mL, which was then tested for chemical stability by HPLC analysis using Shimadzu LC-20ADxr.
# [5] = Solubility in biological media and purified water at 37° C. (tartrate, ethanesulfonate, 2-hydroxyethanesulfonate, sulfate); assay type: physicochemical
# Procedure: (§1) A) The HPLC method used for the solubility test was as follows:
# The centrifuge tubes were shaken on a constant temperature incubator shaker (at a temperature of 37° C., with a shaking frequency of 100 times/min).
# [6] = Solubility in biologically relevant media at 37° C. (free base crystal form I, crystal form III of maleate); assay type: physicochemical; details: for pH 24 h: filtrate
# Procedure: as §1
# 15 mg of each sample was weighed and dispersed in 3.0 mL of biologically relevant medium. The dispersion was shaken on a shaker at a rotation speed of 800 rpm at 37° C. 1 mL of the dispersion was taken at 0.5 h, 2 h, and 24 h, and filtered. The filtrate was tested for solubility by Agilent HPLC 1260 series and for pH value by a pH meter. The filter cake was characterized for the crystal form by XRPD.
# [7] = 60° C./sealed, 60° C./sealed/N2, 40° C./75% RH (open), RT/sealed for 2 weeks
# [8] = filter cake after 24 h in FaSSIF
# [9] = filter cake after 24 h in FeSSIF
# [10] = simulated gastric fluid, thermodynamic from solid, SGF, 37° C.
# [11] = male SD rats, single intragastric administration, 10 mg/kg (calculated as compound I), 10 mL/kg, suspension in 0.5% CMC-Na aqueous solution, plasma concentration of compound I
Structure (SMILES),XRPD spectra before and after the DVS test [2],weight gain (DVS) ([2]; 0.0% RH to 80% RH),hygroscopicity [2],"Purity (%), 230 nm, 40° C./75% RH (open) Week 2 ([3]; 40° C./75% RH (open)) [%]","Purity (%), 230 nm, 60° C./sealed Week 2 ([3]; 60° C./sealed) [%]","Purity (%), 230 nm, Day 0 [3] [%]",stability in chemical properties [4],"Purity (%), 230 nm, Day 13 [4] [%]","Purity (%), 230 nm, Day 0 [4] [%]",weight gain (DVS) ([2]; 0.0% RH to 90% RH) [%],"Purity (%), 230 nm, 40° C./75% RH (open) Week 1 ([3]; 40° C./75% RH (open)) [%]","stability in physical and chemical properties [3, 7]","Purity (%), 230 nm, 60° C./sealed Week 1 ([3]; 60° C./sealed) [%]","Purity (%), 230 nm, 60° C./sealed/N2 Week 1 [3] [%]","Purity (%), 230 nm, 60° C./sealed/N2 Week 2 [3] [%]","Purity (%), 230 nm, RT/sealed Week 2 [3] [%]","XRPD (24 h) [6, 8]","XRPD (24 h) [6, 9]",XRPD (24 h) ([6]; filter cake after 24 h in SGF),pH 24 h ([6]; FaSSIF),other results
O=S(=O)(O)O [Sulfate],,,,,,,,,,,,,,,,,,,,,"AUClast ([1]; rat, in vivo, po, 10 mg/kg): 13429 ng·h/mL"
CCS(=O)(=O)O.Cn1c(C(=O)N2CC(F)(F)C2)cc2c1CN(c1ncc(F)c(Nc3ccc(-c4cn[nH]c4)cc3)n1)CC2 [Crystal form I of ethanesulfonate],crystal form remained unchanged,about 0.3%,slightly hygroscopic,99.49,99.50,99.48,substantially stable,98.69,98.68,,,,,,,,,,,,"stability in physical and chemical properties ([3]; 40° C./75% RH (open) and 60° C./sealed): substantially stable; Purity (%), 230 nm, 40° C./75% RH (open) Day 30 ([3]; 40° C./75% RH (open), Day 30): 99.48%; Purity (%), 230 nm, 60° C./sealed Day 30 ([3]; 60° C./sealed, Day 30): 99.49%; solubility in SGF in the first 4 h [5]: around 100 μg/mL"
Cn1c(C(=O)N2CC(F)(F)C2)cc2c1CN(c1ncc(F)c(Nc3ccc(-c4cn[nH]c4)cc3)n1)CC2.O=C(O)/C=C\C(=O)O [Crystal form III of maleate],crystal form remained unchanged,0.29%,slightly hygroscopic,97.92,97.85,98.11,,,,0.37,98.00,slight degradation,97.96,97.95,97.97,98.02,underwent a crystal form transformation,underwent a crystal form transformation,underwent a crystal form transformation,5.33,"Solubility 0.5 h ([6]; FaSSIF, 37° C.): 0.14 µg/mL; Solubility 24 h ([6]; FaSSIF, 37° C.): 1.11 µg/mL; Solubility 0.5 h ([6]; FeSSIF, 37° C.): 0.74 µg/mL; Solubility 2 h ([6]; FeSSIF, 37° C.): 2.47 µg/mL; Solubility 24 h ([6]; FeSSIF, 37° C.): 3.90 µg/mL; Solubility 2 h ([6]; SGF, 37° C.): 2.18 µg/mL; Solubility 24 h ([6]; SGF, 37° C.): 6.45 µg/mL; pH 24 h ([6]; FeSSIF): 4.90; pH 24 h ([6]; SGF): 1.29"
Cn1c(C(=O)N2CC(F)(F)C2)cc2c1CN(c1ncc(F)c(Nc3ccc(-c4cn[nH]c4)cc3)n1)CC2 [Free base crystal form I],crystal form remained unchanged,0.30%,slightly hygroscopic,97.88,97.85,97.90,,,,0.46,97.82,substantially stable,97.82,97.83,97.84,97.93,remained unchanged,remained unchanged,underwent a crystal form transformation,6.53,"solubility ([6]; fassgf or other biorelevant, thermodynamic from solid, SGF, FaSSIF and FeSSIF, 37° C., read-out: solubility in the three biologically relevant media): < 50 µg/mL; pH 24 h ([6]; FeSSIF): 5.02; pH 24 h ([6]; SGF): 1.30; solubility at 24 h ([6]; pH 1.3, simulated gastric fluid, thermodynamic from solid, SGF, 37° C.): 8.57 µg/mL; solubility at 24 h ([6]; pH 5.02, thermodynamic from solid, FeSSIF, 37° C.): 3.35 µg/mL; solubility at 24 h ([6]; pH 6.53, thermodynamic from solid, FaSSIF, 37° C.): 0.39 µg/mL; solubility at 0.5 h [6, 10]: 11.5 µg/mL; solubility at 2 h [6, 10]: 6.69 µg/mL; solubility at 0.5 h ([6]; thermodynamic from solid, FaSSIF, 37° C.): 0.29 µg/mL; solubility at 2 h ([6]; thermodynamic from solid, FeSSIF, 37° C.): 1.79 µg/mL"
"O=S(=O)(O)CCO [Sample 2-Hydroxyethanesulfonate, 2-Hydroxyethanesulfonate]",,,,,,,,,,,,,,,,,,,,,"AUClast [1, 11]: 9449 ng·h/mL; Cmax [1, 11]: 827 ng/mL"
Cn1c(C(=O)N2CC(F)(F)C2)cc2c1CN(c1ncc(F)c(Nc3ccc(-c4cn[nH]c4)cc3)n1)CC2.O=S(=O)(O)CCO,,,,,,,substantially stable,98.7,98.76,,,,,,,,,,,,
